Like-named read-outs stand apart in the source and are kept apart here. Numbered stars: 1 amine (or outer) side, 2 acyl side, 3 side chain; on linkers, the order of the positions; unused ones are H or OH. Square brackets hold non-standard residues; d marks the D form. Side chains are listed from the residue outwards. Peptide text beside a SMILES is read from it. * marks the point of attachment. C20 diacid = O=C(O)CCCCCCCCCCCCCCCCCCC(=O)*; C18 diacid = O=C(O)CCCCCCCCCCCCCCCCC(=O)*; αMePhe(2-F) = C[C@](N)(Cc1ccccc1F)C(=O)O; γGlu = O=C(O)[C@H](CCC(=O)[*:2])N[*:1]; αMeL = CC(C)C[C@](C)(N)C(=O)O; Orn = NCCC[C@H](N)C(=O)O; AEEA = NCCOCCOCC(=O)O; Aib = CC(C)(N)C(=O)O
Columns and labels:
human Gcg receptor = target: T1, human Gcg receptor (Homo sapiens, UniProt P47871); assay: [125I]-Glucagon binding (SPA), human Gcg receptor
T1 construct: expressed in transfected cells; crude membranes
T1 sequence (P47871 26-477): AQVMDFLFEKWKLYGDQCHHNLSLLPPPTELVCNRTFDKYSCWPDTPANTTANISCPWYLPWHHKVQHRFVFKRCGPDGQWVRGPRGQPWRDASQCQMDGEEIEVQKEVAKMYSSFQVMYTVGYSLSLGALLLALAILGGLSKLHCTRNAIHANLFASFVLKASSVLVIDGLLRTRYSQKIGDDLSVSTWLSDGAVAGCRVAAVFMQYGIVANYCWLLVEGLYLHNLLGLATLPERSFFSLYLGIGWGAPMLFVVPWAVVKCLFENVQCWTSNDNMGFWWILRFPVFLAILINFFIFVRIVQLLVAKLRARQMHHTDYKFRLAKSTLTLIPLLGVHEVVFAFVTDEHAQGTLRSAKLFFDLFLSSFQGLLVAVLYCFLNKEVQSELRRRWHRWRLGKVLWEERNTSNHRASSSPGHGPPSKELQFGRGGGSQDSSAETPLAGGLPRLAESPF
How it was run: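 Crude membranes from cells expressing the receptor, prepared by hypotonic lysis in 50 mM Tris HCl pH 7.5 with protease inhibitors, homogenization and differential centrifugation, were used in a WGA-bead SPA. Binding buffer: 25 mM HEPES pH 7.4, 2.5 mM CaCl2, 1 mM MgCl2, bacitracin, Tween-20.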

human GIP receptor = target: T2, human GIP receptor (Homo sapiens, UniProt P48546); assay: [125I]-GIP binding (SPA), human GIP receptor
T2 construct: expressed in transfected cells; crude membranes
T2 sequence (P48546 22-466): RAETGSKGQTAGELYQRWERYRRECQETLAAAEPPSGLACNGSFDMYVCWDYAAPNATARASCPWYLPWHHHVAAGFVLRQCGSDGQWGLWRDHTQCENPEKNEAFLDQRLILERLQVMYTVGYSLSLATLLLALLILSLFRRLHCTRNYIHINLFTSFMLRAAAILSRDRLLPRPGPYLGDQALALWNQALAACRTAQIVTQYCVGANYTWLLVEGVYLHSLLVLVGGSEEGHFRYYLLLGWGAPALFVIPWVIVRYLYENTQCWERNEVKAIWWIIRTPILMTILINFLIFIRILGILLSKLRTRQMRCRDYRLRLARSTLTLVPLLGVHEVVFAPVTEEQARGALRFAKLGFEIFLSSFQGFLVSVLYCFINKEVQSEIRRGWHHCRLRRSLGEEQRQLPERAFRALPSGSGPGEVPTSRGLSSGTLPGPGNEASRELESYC

[1] = target: human GLP-1 receptor (GLP-1R) (Homo sapiens, UniProt P43220); assay: cAMP pharmacological functional assay in presence of casein, hGLP-1R; format: cell-based
Sequence of human GLP-1 receptor (GLP-1R) (P43220 24-463): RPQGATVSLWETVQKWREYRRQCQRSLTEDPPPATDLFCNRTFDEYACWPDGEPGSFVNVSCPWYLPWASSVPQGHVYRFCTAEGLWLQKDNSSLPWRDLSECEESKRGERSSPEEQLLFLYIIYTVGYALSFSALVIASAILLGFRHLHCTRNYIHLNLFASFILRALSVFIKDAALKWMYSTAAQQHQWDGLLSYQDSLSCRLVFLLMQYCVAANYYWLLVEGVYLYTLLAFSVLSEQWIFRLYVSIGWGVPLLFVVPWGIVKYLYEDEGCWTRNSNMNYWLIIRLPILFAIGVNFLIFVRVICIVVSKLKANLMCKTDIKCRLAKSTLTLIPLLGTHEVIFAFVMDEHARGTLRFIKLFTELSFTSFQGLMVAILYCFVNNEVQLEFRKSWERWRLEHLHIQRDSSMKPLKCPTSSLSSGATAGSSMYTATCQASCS

[2] = target: T3, gastric inhibitory peptide receptor (GIPR) (Homo sapiens, UniProt P48546); assay: cAMP pharmacological functional assay in presence of casein, hGIPR; format: cell-based
T3 sequence (P48546 22-466): T2 sequence (P48546 22-466)

human GLP-1R = human GLP-1R (Homo sapiens, UniProt P43220); assay: GLP-1R HEK293 cell membrane [35S]GTPγS binding assay; format: biochemical; parameters: expressed in transfected cells; host or cells: HEK293 cells expressing human GLP-1R; membranes
Sequence of human GLP-1R (P43220 24-463): as above
How it was run: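 Membranes from HEK293 cells expressing the receptor incubated with peptide and […] [35S]GTPγS in HEPES pH 7.4 buffer with NaCl, MgCl2, saponin and BSA, 30 min at room temperature. Gαs-bound label captured by anti-Gαs antibody/SPA beads and counted; EC50 from four-parameter logistic fit.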

Compound	Ki (human Gcg receptor) [nM]	Ki (human GIP receptor) [nM]	EC50 [1] [nM]	EC50 [2] [nM]	EC50 (human GLP-1R) [nM]	Ki (human Gcg receptor; read-out: hGLcgR Ki, nM (SEM, n)) [nM]	Ki (human GIP receptor; read-out: hGIPR Ki, nM (SEM, n)) [nM]	EC50 ([1]; HEK293 cells expressing hGLP-1R, 0.1% Casein, geometric mean, read-out: hGLP1R cAMP Rel EC50 nM (SEM, n)) [nM]	EC50 ([2]; HEK293 cells expressing hGIPR, 0.1% Casein, geometric mean, read-out: hGIPR cAMP Rel EC50 nM (SEM, n)) [nM]	EC50 (human GLP-1R; HEK293 cell membranes expressing human GLP-1R, [35S]GTPγS binding, read-out: hGLP1R GTPgS Rel EC50 nM (SEM, n)) [nM]
CC[C@H](C)[C@H](NC(=O)[C@H](CC(C)C)NC(=O)[C@H](Cc1ccc(O)cc1)NC(=O)[C@@H](CCC(=O)O)NC(=O)[C@@H](NC(=O)[C@H](Cc1ccccc1)NC(=O)[C@H](CCC(=O)O)NC(=O)C(C)(C)NC(=O)[C@H](CCC(N)=O)NC(=O)[C@H](C)NC(=O)[C@H](CCCCNC(=O)COCCOCCNC(=O)COCCOCCNC(=O)CC[C@H](NC(=O)CCCCCCCCCCCCCCCCCCC(=O)O)C(=O)O)NC(=O)[C@H](CCC(=O)O)NC(=O)[C@H](CC(=O)O)NC(=O)[C@H](CC(C)C)NC(=O)[C@](C)(CC(C)C)NC(=O)[C@@H](NC(=O)[C@H](CO)NC(=O)[C@H](Cc1ccc(O)cc1)NC(=O)[C@H](CC(=O)O)NC(=O)[C@H](CO)NC(=O)[C@@H](NC(=O)[C@](C)(Cc1ccccc1F)NC(=O)[C@@H](NC(=O)CNC(=O)[C@H](CCC(=O)O)NC(=O)C(C)(C)NC(=O)[C@@H](N)Cc1ccc(O)cc1)[C@@H](C)O)[C@@H](C)O)[C@@H](C)CC)[C@@H](C)CC)C(=O)N[C@@H](CCC(=O)O)C(=O)NCC(=O)NCC(=O)N1CCC[C@H]1C(=O)N[C@@H](CO)C(=O)N[C@@H](CO)C(=O)NCC(=O)N[C@@H](C)C(=O)N1CCC[C@H]1C(=O)N1CCC[C@H]1C(=O)N1CCC[C@H]1C(=O)N[C@@H](CO)C(N)=O [Example 1] (H-Y[Aib]EGT[αMePhe(2-F)]TSDYSI[αMeL]LDEK([AEEA-AEEA-γGlu-C20 diacid])AQ[Aib]EFI[dE]YLIEGGPSSGAPPPS-NH2)	207	0.0546	0.041	0.0356	0.235	–	–	–	–	–
CC[C@H](C)[C@H](NC(=O)[C@H](CC(C)C)NC(=O)[C@H](Cc1ccc(O)cc1)NC(=O)[C@@H](CCC(=O)O)NC(=O)[C@@H](NC(=O)[C@H](Cc1ccccc1)NC(=O)[C@H](CCC(=O)O)NC(=O)C(C)(C)NC(=O)[C@H](CCC(N)=O)NC(=O)[C@H](C)NC(=O)[C@H](CCCCNC(=O)COCCOCCNC(=O)COCCOCCNC(=O)CC[C@H](NC(=O)CCCCCCCCCCCCCCCCC(=O)O)C(=O)O)NC(=O)[C@H](CCCN)NC(=O)[C@H](CC(=O)O)NC(=O)[C@H](CC(C)C)NC(=O)[C@](C)(CC(C)C)NC(=O)[C@@H](NC(=O)[C@H](CO)NC(=O)[C@H](Cc1ccc(O)cc1)NC(=O)[C@H](CC(=O)O)NC(=O)[C@H](CO)NC(=O)[C@@H](NC(=O)[C@](C)(Cc1ccccc1F)NC(=O)[C@@H](NC(=O)CNC(=O)[C@H](CCC(=O)O)NC(=O)C(C)(C)NC(=O)[C@@H](N)Cc1ccc(O)cc1)[C@@H](C)O)[C@@H](C)O)[C@@H](C)CC)[C@@H](C)CC)C(=O)N[C@@H](CCC(=O)O)C(=O)NCC(=O)NCC(=O)N1CCC[C@H]1C(=O)N[C@@H](CO)C(=O)N[C@@H](CO)C(=O)NCC(=O)N[C@@H](C)C(=O)N1CCC[C@H]1C(=O)N1CCC[C@H]1C(=O)N1CCC[C@H]1C(=O)N[C@@H](CO)C(N)=O [Example 2] (H-Y[Aib]EGT[αMePhe(2-F)]TSDYSI[αMeL]LD[Orn]K([AEEA-AEEA-γGlu-C18 diacid])AQ[Aib]EFI[dE]YLIEGGPSSGAPPPS-NH2; N-terminus assumed)	361	0.06	0.0441	0.0339	0.642	–	–	–	–	–
CC[C@H](C)[C@H](NC(=O)[C@H](CC(C)C)NC(=O)[C@H](Cc1ccc(O)cc1)NC(=O)[C@@H](CCC(=O)O)NC(=O)[C@@H](NC(=O)[C@H](Cc1ccccc1)NC(=O)[C@H](CCC(=O)O)NC(=O)C(C)(C)NC(=O)[C@H](CCC(N)=O)NC(=O)[C@H](C)NC(=O)[C@H](CCCCNC(=O)COCCOCCNC(=O)COCCOCCNC(=O)CC[C@H](NC(=O)CCCCCCCCCCCCCCCCCCC(=O)O)C(=O)O)NC(=O)[C@H](CCCN)NC(=O)[C@H](CC(=O)O)NC(=O)[C@H](CC(C)C)NC(=O)[C@](C)(CC(C)C)NC(=O)[C@@H](NC(=O)[C@H](CO)NC(=O)[C@H](Cc1ccc(O)cc1)NC(=O)[C@H](CC(=O)O)NC(=O)[C@H](CO)NC(=O)[C@@H](NC(=O)[C@](C)(Cc1ccccc1F)NC(=O)[C@@H](NC(=O)CNC(=O)[C@H](CCC(=O)O)NC(=O)C(C)(C)NC(=O)[C@@H](N)Cc1ccc(O)cc1)[C@@H](C)O)[C@@H](C)O)[C@@H](C)CC)[C@@H](C)CC)C(=O)N[C@@H](CCC(=O)O)C(=O)NCC(=O)NCC(=O)N1CCC[C@H]1C(=O)N[C@@H](CO)C(=O)N[C@@H](CO)C(=O)NCC(=O)N[C@@H](C)C(=O)N1CCC[C@H]1C(=O)N1CCC[C@H]1C(=O)N1CCC[C@H]1C(=O)N[C@@H](CO)C(N)=O [Example 3]	242	0.0458	0.0338	0.0411	0.421	–	–	–	–	–
CC[C@H](C)[C@H](NC(=O)[C@H](CC(C)C)NC(=O)[C@](C)(Cc1ccc(O)cc1)NC(=O)[C@@H](CCC(=O)O)NC(=O)[C@@H](NC(=O)[C@H](Cc1ccccc1)NC(=O)[C@H](CCC(=O)O)NC(=O)C(C)(C)NC(=O)[C@H](CCC(N)=O)NC(=O)[C@H](C)NC(=O)[C@H](CCCCNC(=O)COCCOCCNC(=O)COCCOCCNC(=O)CC[C@H](NC(=O)CCCCCCCCCCCCCCCCC(=O)O)C(=O)O)NC(=O)[C@H](CCCN)NC(=O)[C@H](CC(=O)O)NC(=O)[C@H](CC(C)C)NC(=O)[C@](C)(CC(C)C)NC(=O)[C@@H](NC(=O)[C@H](CO)NC(=O)[C@H](Cc1ccncc1)NC(=O)[C@H](CC(=O)O)NC(=O)[C@H](CO)NC(=O)[C@@H](NC(=O)[C@](C)(Cc1ccccc1F)NC(=O)[C@@H](NC(=O)CNC(=O)[C@H](CCC(=O)O)NC(=O)C(C)(C)NC(=O)[C@@H](N)Cc1ccc(O)cc1)[C@@H](C)O)[C@@H](C)O)[C@@H](C)CC)[C@@H](C)CC)C(=O)N[C@@H](CCC(=O)O)C(=O)NCC(=O)NCC(=O)N1CCC[C@H]1C(=O)N[C@@H](CO)C(=O)N[C@@H](CO)C(=O)NCC(=O)N[C@@H](C)C(=O)N1CCC[C@H]1C(=O)N1CCC[C@H]1C(=O)N1CCC[C@H]1C(=O)N[C@@H](CO)C(N)=O [Example 4]	686	0.0528	0.0297	0.0272	0.245	–	–	–	–	–
CC[C@H](C)[C@H](NC(=O)[C@H](CC(C)C)NC(=O)[C@H](Cc1ccc(O)cc1)NC(=O)[C@H](CCC(=O)O)NC(=O)[C@@H](NC(=O)[C@H](Cc1ccccc1)NC(=O)[C@H](C)NC(=O)C(C)(C)NC(=O)[C@H](CCC(N)=O)NC(=O)[C@H](C)NC(=O)[C@H](CCCCNC(=O)COCCOCCNC(=O)COCCOCCNC(=O)CC[C@H](NC(=O)CCCCCCCCCCCCCCCCCCC(=O)O)C(=O)O)NC(=O)[C@H](CCCCN)NC(=O)[C@H](CC(=O)O)NC(=O)[C@H](CC(C)C)NC(=O)[C@H](CC(C)C)NC(=O)[C@@H](NC(=O)[C@H](CO)NC(=O)[C@H](Cc1ccc(O)cc1)NC(=O)[C@H](CC(=O)O)NC(=O)[C@H](CO)NC(=O)[C@@H](NC(=O)[C@H](Cc1ccccc1)NC(=O)[C@@H](NC(=O)CNC(=O)[C@H](CCC(=O)O)NC(=O)C(C)(C)NC(=O)[C@@H](N)Cc1ccc(O)cc1)[C@@H](C)O)[C@@H](C)O)[C@@H](C)CC)[C@@H](C)CC)C(=O)N[C@@H](C)C(=O)NCC(=O)NCC(=O)N1CCC[C@H]1C(=O)N[C@@H](CO)C(=O)N[C@@H](CO)C(=O)NCC(=O)N[C@@H](C)C(=O)N1CCC[C@H]1C(=O)N1CCC[C@H]1C(=O)N1CCC[C@H]1C(=O)N[C@@H](CO)C(N)=O [Example 288] (H-Y[Aib]EGTFTSDYSILLDKK([AEEA-AEEA-γGlu-C20 diacid])AQ[Aib]AFIEYLIAGGPSSGAPPPS-NH2; N-terminus assumed)	–	–	–	–	–	345	0.058	0.172	0.0732	0.666

Source: US12252524B2, “GIP/GLP1 co-agonist compounds” (Eli Lilly and Company, priority 2018, dated 2025)
